These compounds were tested against T1, HIV protease (Human immunodeficiency virus type 1 group M subtype B, UniProt P04585) (assay: biochemical). Conditions: partially purified HIV protease expressed in E. coli; substrate succinyl-Ser-Leu-Asn-Tyr-Pro-Ile isobutylamide; citrate buffer pH 5.5; 37° C.; read-out: I50 (concentration of test compound required to give 50% inhibition).
T1 construct: HIV protease was expressed in E. coli; made in house; host or cells: E. coli
Description: HIV protease was expressed in E. coli and partially purified from soluble extracts of the bacterium by ammonium sulphate fractionation (0-30%). Protease activity was assayed using the protected hexapeptide succinyl-Ser-Leu-Asn-Tyr-Pro-Ile isobutylamide as the substrate. Cleavage of the substrate was quantified by measuring the production of H-Pro-Ile isobutylamide by the spectrophotometric assay of N-terminal proline.
1.25 mM of substrate were dissolved in 125 mM of citrate buffer (pH 5.5) containing 0.125 mg/ml of Tween 20. 10 μl of a solution of various concentrations of the test compound (dissolved in methanol or […]) and 10 μl of protease were added to 80 μl of the above buffered substrate. Digestion was carried out at 37° C. for a fixed period of time and was terminated by the addition of 1 ml of colour reagent [30 μg/ml of isatin and 1.5 mg/ml of 2-(4-chlorobenzoyl)benzoicacid in 10% acetone in ethanol (vol./vol.)]. The solution was heated in a water bath and then the pigmented residues were re-dissolved in 1 ml of 1% pyrogallol in 33% water in acetone (wt./vol./vol.). The optical density of the solution was measured spectrophotometrically at 599 nm.

| SMILES | IC50 |
| --- | --- |
| CC(C)CNC(=O)[C@@H]1CCCN1CC(O)[C@H](Cc1ccccc1)NC(=O)[C@H](CC(N)=O)NC(=O)OCc1ccccc1 (single isomer, unassigned) [Compound G, N^2-[3(S)-[[N-(benzyloxycarbonyl)-L-asparaginyl]amino]-2(R or S)-hydroxy-4-phenylbutyl]-N^1-isobutyl-L-prolinamide] | 80 nM |
| CC[C@H](C)[C@H](NC(=O)[C@@H]1CCCN1CC(O)[C@H](Cc1ccccc1)NC(=O)[C@H](CC(N)=O)NC(=O)[C@H](CC(C)C)NC(=O)OCc1ccccc1)C(=O)NCC(C)C (mixture of isomers) [Compound E, N^2-[N-[3(S)-[[N-[N-(benzyloxycarbonyl)-L-leucyl]-L-asparaginyl]amino]-2(R and S)-hydroxy-4-phenylbutyl]-L-prolyl]-N^1-isobutyl-L-isoleucinamide] | 750 nM |
| CC(C)(C)NC(=O)C1Cc2ccccc2CN1C[C@@H](O)[C@H](Cc1ccccc1)NC(=O)[C@H](CC(N)=O)NC(=O)OCc1ccccc1 (mixture of isomers) [Compound I, 2-[3(S)-[[N-(benzyloxycarbonyl)-L-asparaginyl]amino]-2(R)-hydroxy-4-phenylbutyl]-N-tert.butyl-1,2,3,4-tetrahydro-3(R,S)-isoquinolinecarboxamide] | 85 nM |
| CC[C@H](C)[C@H](NC(=O)[C@@H]1CCCN1CC(O)[C@H](Cc1ccccc1)NC(=O)[C@H](CC(N)=O)NC(=O)OCc1ccccc1)C(=O)NCC(C)C (single isomer, unassigned) [Compound D] | 130 nM |
| CC(C)CCNC(=O)[C@@H]1CCCN1CC(O)[C@H](Cc1ccccc1)NC(=O)[C@H](CC(N)=O)NC(=O)OCc1ccccc1 (single isomer, unassigned) [Compound F] | 750 nM |
| CC(C)(C)OC(=O)[C@@H]1CCCN1CC(=O)[C@H](Cc1ccccc1)NC(=O)[C@H](CC(N)=O)NC(=O)OCc1ccccc1 [Compound A, N-[N-[[N-(benzyloxycarbonyl)-L-asparaginyl]-L-phenylalanyl]methyl]-L-proline tert.butyl ester] | 870 nM |
| CC(C)(C)OC(=O)[C@@H]1CCCN1C[C@@H](O)[C@H](Cc1ccccc1)NC(=O)[C@H](CC(N)=O)NC(=O)c1ccc2ccccc2c1 [Compound H, N-[2(R)-hydroxy-3(S)-[[N-(2-naphthoyl)-L-asparaginyl]amino]-4-phenylbutyl]-L-proline tert.butyl ester] | 10 nM |

Same assay, conditions: read-out: I50 (concentration of test compound required to give 50% inhibition)

| SMILES | IC50 |
| --- | --- |
| CC(C)(C)OC(=O)[C@@H]1CCCN1C[C@H](O)[C@H](Cc1ccccc1)NC(=O)[C@H](CC(N)=O)NC(=O)OCc1ccccc1 [Compound C, N-[3(S)-[[N-(benzyloxycarbonyl)-L-asparaginyl]amino]-2(S)-hydroxy-4-phenylbutyl]-L-proline tert.butyl ester] | 300 nM |
| CC(C)(C)OC(=O)[C@@H]1CCCN1C[C@@H](O)[C@H](Cc1ccccc1)NC(=O)[C@H](CC(N)=O)NC(=O)OCc1ccccc1 [Compound B, N-[3(S)-[[N-(benzyloxycarbonyl)-L-asparaginyl]amino]-2(R)-hydroxy-4-phenylbutyl]-L-proline tert.butyl ester] | 150 nM |
